These results are taken from patent US20230233559A1, “COMBINATION OF ZIDOVUDINE AND FLUOROQUINOLONE ANTIBIOTIC” (HELPERBY THERAPEUTICS LIMITED, priority 2019, published 2023).

Common to all, as to format: cell-based
Common to all, as to conditions: fluoroquinolone alone

Assay [1] deals with NCTC13443 NDM-1 Klebsiella pneumoniae. Briefly: Chequerboard MIC, log phase NCTC13443. The method, then: (§1) The chequerboard method used in Example 1 followed the protocols detailed in Antimicrob Chemo (2013) 68, 374-384. Zidovudine and ciprofloxacin were obtained from commercially available sources. The bacteria used were BAA2469 NDM-1 Escherichia coli, BAA2470 NDM-1 Klebsiella pneumoniae, BAA2471 NDM-1 Escherichia coli, BAA2472 NDM-1 Klebsiella pneumoniae, and NCTC13443 NDM-1 Klebsiella pneumoniae. All strains were obtained from a commercial source and log phase growth of the bacteria was carried out using methods known in the art.
(§2) The effects of the combination of the present invention were examined by calculating the fractional inhibitory concentration index (FICI) of each combination, as follows:
(§3) (MIC of drug A, tested in combination)/(MIC of drug A, tested alone)+(MIC of drug B, tested in combination)/(MIC of drug B, tested alone).
(§4) The interaction of the combination was defined as showing synergy if the FICI was ≤0.5, no interaction if the FICI was >0.5 but <4.0 and antagonism if the FICI was >4.0.
(§5) The method and bacterial strains were identical to Example 1. Zidovudine and levofloxacin were obtained from commercially available sources. The effects of the combination of the present invention were examined by calculating the MIC for each drug alone and in combination in the same manner as Example 1.
(§6) The method and bacterial strains were identical to Example 1. Zidovudine and moxifloxacin were obtained from commercially available sources. The effects of the combination of the present invention were examined by calculating the MIC for each drug alone and in combination in the same manner as Example 1.

Assay [2] concerns BAA2470 NDM-1 Klebsiella pneumoniae. Briefly: Chequerboard MIC, log phase BAA2470. The method, then:
as §1, §2, §3, §4, §5, §6

Assay [3] deals with BAA2471 NDM-1 Escherichia coli. Briefly: Chequerboard MIC, log phase BAA2471. The method, then: as §1, §2, §3, §4, §5, §6
For assay [4], the system named is BAA2469 NDM-1 Escherichia coli. Briefly: Chequerboard MIC, log phase BAA2469. The method, then: as §1, §2, §3, §4, §5, §6
Assay [5] relates to BAA2472 NDM-1 Klebsiella pneumoniae. Briefly: Chequerboard MIC, log phase BAA2472. The method, then: as §1, §2, §3, §4, §5, §6

Structures are written as SMILES.

Usually MIC stands for the lowest concentration that inhibits growth of the organism. In the case of `O=C(O)c1cn(C2CC2)c2cc(N3CCNCC3)c(F)cc2c1=O` [Ciprofloxacin, 1-cyclopropyl-6-fluoro-1,4-dihydro-4-oxo-7-(1-piperazinyl)-3-quinolinecarboxylic acid], the MIC in assay [1] is 64 µg/mL; in assay [2], 8 µg/mL; in assay [3] it was over 64 µg/mL; in assay [4], 64 µg/mL; in assay [5] it was 64 µg/mL.

Regarding `COc1c(N2C[C@@H]3CCCN[C@@H]3C2)c(F)cc2c(=O)c(C(=O)O)cn(C3CC3)c12` [Moxifloxacin, 7-[(4aS,7aS)-1,2,3,4,4a,5,7,7a-octahydropyrrolo[3,4-b]pyridin-6-yl]-1-cyclopropyl-6-fluoro-8-methoxy-4-oxoquinoline-3-carboxylic acid], the MIC was 128 µg/mL in assay [1]; 32 µg/mL in assay [2]; 128 µg/mL in assay [3]; 16 µg/mL in assay [4]; 128 µg/mL in assay [5].

For `C[C@H]1COc2c(N3CCN(C)CC3)c(F)cc3c(=O)c(C(=O)O)cn1c23` [Levofloxacin, (2S)-7-fluoro-2-methyl-6-(4-methylpiperazin-1-yl)-10-oxo-4-oxa-1-azatricyclo[7.3.1.0^5,13]trideca-5(13),6,8,11-tetraene-11-carboxylic acid], the minimum inhibitory concentration (MIC) was found to be 32 µg/mL in assay [1]; 8 µg/mL in assay [2]; 32 µg/mL in assay [3]; 8 µg/mL in assay [4]; 32 µg/mL in assay [5].
